The test has as its target T1, human lysozyme (HL) (Homo sapiens, UniProt P61626).
T1 sequence (P61626 19-148): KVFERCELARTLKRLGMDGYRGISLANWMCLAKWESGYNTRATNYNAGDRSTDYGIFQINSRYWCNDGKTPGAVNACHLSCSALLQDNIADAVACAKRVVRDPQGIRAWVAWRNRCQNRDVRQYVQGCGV
The experiment in a line: isothermal titration calorimetry. The test is classed as binding.

Turning to `N=C(N)c1ccccc1` [benzamidine], the Kd (commonly a measure of binding affinity in units of concentration) is 1.55 µM.

The record behind these values is article doi:10.1101/2024.10.17.618876v1 (biorxiv, 2024).
